# Measured values taken from US9387221B2, “SDF-1 binding nucleic acids and the use thereof in cancer treatment” (NOXXON Pharma AG, priority 2010, dated 2016).
# “Also recorded” adds a separate entry of the source.
# Tested on: biotinylated human D-SDF-1
# Assay: Competitive pull-down binding assay
# Conditions: for binding affinity in competitive pull-down binding assay vs. 192-A10-001: aptamer level, reference 192-A10-001; for binding affinity in competitive pull-down binding assay vs. 191-D5-007: reference 191-D5-007; for binding affinity of derivatives of 192-A10-001 in competitive pull-down binding assay: vs. 192-A10-001 and 192-A10-008; for binding affinity of derivatives of 193-G2-001 and 193-C2-001 in competitive pull-down binding assay: vs. 193-G2-001 and 193-G2-012; for binding to human SDF-1 in comparison to 193-G2-001: reference 193-G2-001
# Description: In order to compare different D-SDF-1 binding aptamers, a competitive ranking assay was performed. For this purpose the most affine aptamer available was radioactively labeled (see above) and served as reference. […] An excess of de- and renatured non-labeled D-RNA aptamer variants was added to different concentrations (e.g. 2, 10, and 50 nM) with the labeled reference aptamer to parallel binding reactions. The aptamers to be tested competed with the reference aptamer for target binding, thus decreasing the binding signal in dependence of their binding characteristics.
sequence,measurement,setting,value
"GCUGUGAAAGUAACAUGUCAAUGAAAGGUAACCACUGC (aptamer; Made as D-RNA aptamer and L-RNA Spiegelmer, tested form not given here, further chemistry not given here) [192-G11]",binding affinity in competitive pull-down binding assay vs. 192-A10-001,,Weaker binding affinity
GGCCGGGGUUAGGGCUAGAAGUCGGCCGGCC (chemistry not fully specified) [197-B2-006-31a],binding affinity in competitive pull-down binding assay vs. 191-D5-007,,the same as shown for 191-D5-007 and 197-B2-006
GCGCAAAGCAACAUGUCAAUGAAAGGUAGCGUGC (aptamer; chemistry not given here) [192-A10-017],binding affinity of derivatives of 192-A10-001 in competitive pull-down binding assay,,"weaker, much weaker or very much weaker binding affinity"
GUGAAAGCAACAUGUCAAUGAAAGGUAGCCGC (chemistry not given here) [192-A10-004],binding affinity of derivatives of 192-A10-001 in competitive pull-down binding assay,,reduced binding affinity
"GCUGUGAAAGUAACAUGUCAAUGAAAGGUAGCCGCAGC (aptamer; Made as D-RNA aptamer and L-RNA Spiegelmer, tested form not given here, further chemistry not given here) [192-H9]",binding affinity in competitive pull-down binding assay vs. 192-A10-001,,much weaker binding affinity
GCGGAAAGCAACAUGUCAAUGAAAGGUAGCCCGC (aptamer; chemistry not given here) [192-A10-014],binding affinity of derivatives of 192-A10-001 in competitive pull-down binding assay,,"weaker, much weaker or very much weaker binding affinity"
AAAGCAACAUGUCAAUGAAAGGUAGC (chemistry not fully specified) [192-A10-007],binding affinity of derivatives of 192-A10-001 in competitive pull-down binding assay,,reduced binding affinity
UGUGAAAGCAACAUGUCAAUGAAAGGUAGCCGCA (aptamer; chemistry not given here) [192-A10-003],binding affinity of derivatives of 192-A10-001 in competitive pull-down binding assay,,reduced binding affinity
CCCCAAAGCAACAUGUCAAUGAAAGGUAGCGGGG (aptamer; chemistry not given here) [192-A10-023],binding affinity of derivatives of 192-A10-001 in competitive pull-down binding assay,,"weaker, much weaker or very much weaker binding affinity"
GUGGUGUGAUCUAGAUGUAGUGGCUGAUCCUAGUCAGGUAC (chemistry not fully specified) [193-C2-004],binding affinity of derivatives of 193-G2-001 and 193-C2-001 in competitive pull-down binding assay,,reduced binding affinity
GUGCUGCGGGGGUUAGGGCUCAAAGUCGGCCUGCAGCAC (chemistry not given here) [197-H2],binding affinity in competitive pull-down binding assay vs. 192-A10-001,,Much weaker binding affinity
AGCGUGGUGUGAUCUAGAUGUAGUGGCUGAUCCUAGUCAGGUACGCU (chemistry not fully specified) [193-C2-001],binding affinity in competitive pull-down binding assay vs. 192-A10-001,,superior binding
"GCUGUGAAAGUAACACGUCAAUGAAAGGUAACCGCAGC (aptamer; Made as D-RNA aptamer and L-RNA Spiegelmer, tested form not given here, further chemistry not given here) [192-F10]",binding affinity in competitive pull-down binding assay vs. 192-A10-001,,Weaker binding affinity; also recorded: reduced binding affinity
GGGCGGGUUAGGGCUAGAAGUCGGCGCCC (chemistry not fully specified) [191-D5-024-29b],binding affinity in competitive pull-down binding assay vs. 191-D5-007,,identical binding affinity to SDF-1 as 191-D5-007
"GCUGUAAAAGUAACAUGUCAAUGAAAGGUAACUACAGC (aptamer; Made as D-RNA aptamer and L-RNA Spiegelmer, tested form not given here, further chemistry not given here) [192-C9]",binding affinity in competitive pull-down binding assay vs. 192-A10-001,,Weaker binding affinity
GUGUUGCAGGGGUUAGGGCUUGAAGUCGGCCUGCAGCAC (chemistry not given here) [197-E3],binding affinity in competitive pull-down binding assay vs. 192-A10-001,,weaker binding affinities
"AGCGUGAAGGGGUUAGGGCUCGAAGUCGGCUGACACGCU (Made as D-RNA aptamer and L-RNA Spiegelmer, tested form not given here, further chemistry not given here) [191-A5]",binding affinity in competitive pull-down binding assay vs. 192-A10-001,,Much weaker binding affinity
GGCCGUGUGAUCUAGAUGUAUUGGCUGAUCCUAGUCAGGGGCC (chemistry not fully specified) [193-G2-016],binding affinity of derivatives of 193-G2-001 and 193-C2-001 in competitive pull-down binding assay,,reduced binding affinity
GCGUGGUGUGAUCUAGAUGUAGAGGCUGAUCCUAGUCAGGUACGC (chemistry not fully specified) [193-B3-002],binding to human SDF-1 in comparison to 193-G2-001,,reduced binding
GCGUGGUGUGAUCUAGAUGUAGUGGCUGAUCCUAGUUAGGUACGC (chemistry not fully specified) [193-D1-002],binding to human SDF-1 in comparison to 193-G2-001,,reduced binding
"GUGUGAUCUAGAUGUAGUGGCUGAUCCUAGUCAGG (Listed both as L-RNA Spiegelmer and D-RNA aptamer, further chemistry not given here) [193-C2-007]",binding affinity of derivatives of 193-G2-001 and 193-C2-001 in competitive pull-down binding assay,,reduced binding affinity
"GCUGCGAAAGCGACAUGUCAAUGAAAGGUAGCCGCAGC (aptamer; Made as D-RNA aptamer and L-RNA Spiegelmer, tested form not given here, further chemistry not given here) [192-D10]",binding affinity in competitive pull-down binding assay vs. 192-A10-001,,much weaker binding affinity
GCGCGGUGUGAUCUAGAUGUAUUGGCUGAUCCUAGUCAGGCGCGC (chemistry not fully specified) [193-G2-013],binding affinity of derivatives of 193-G2-001 and 193-C2-001 in competitive pull-down binding assay,,reduced binding affinity
"CGUGCGCUUGAGAUAGGGGUUAGGGCUUAAAGUCGGCUGAUUCUCACG (Made as D-RNA aptamer and L-RNA Spiegelmer, tested form not given here, further chemistry not given here) [190-A3-001]",binding affinity in competitive pull-down binding assay vs. 192-A10-001,,weaker binding affinities
"CGGGCGAGGUUAGGGCUAGAAGUCGGUCGACCG (Made as D-RNA aptamer and L-RNA Spiegelmer, tested form not given here, further chemistry not given here) [191-D5-004]",binding affinity in competitive pull-down binding assay vs. 191-D5-001,reference 191-D5-001,reduced binding affinity
CGUGGUGUGAUCUAGAUGUAGUGGCUGAUCCUAGUCAGGUACG (chemistry not fully specified) [193-C2-003],binding affinity of derivatives of 193-G2-001 and 193-C2-001 in competitive pull-down binding assay,,reduced binding affinity
"GCUAUGAAAGUAACAUGUCAAUGAAAGGUAACCAUAGC (aptamer; Made as D-RNA aptamer and L-RNA Spiegelmer, tested form not given here, further chemistry not given here) [192-H11]",binding affinity in competitive pull-down binding assay vs. 192-A10-001,,Weaker binding affinity
AGCGUGGUGUGAUCUAGAUGUAAUGGCUGAUCCUAGUCAGGUGCGCU (chemistry not fully specified) [193-F2-001],binding affinity in competitive pull-down binding assay vs. 192-A10-001,,superior binding
"CUGUGAAAGCAACAUGUCAAUGAAAGGUAGCCGCAG (aptamer; Made as D-RNA aptamer and L-RNA Spiegelmer, tested form not given here, further chemistry not given here) [192-A10-002]",binding affinity of derivatives of 192-A10-001 in competitive pull-down binding assay,,without reduction of binding affinity
